# Test results: patent US20100004284A1, “Novel Heterocyclic Compounds as Positive Allosteric Modulators of Metabotropic Glutamate Receptors” (ADDEX PHARMA SA, priority 2005, published 2010)
# Key:
# rat mGluR5 = molecular target: T1, rat mGluR5 (Rattus norvegicus, UniProt P31424); test: mGluR5 assay on HEK-expressing rat mGluR5 (fluorescent cell based Ca2+ mobilization assay); conditions: for EC50: HEK-293 cells stably expressing rat mGluR5, no co-addition of glutamate, mean of at least three independent experiments in duplicate, read-out: Ca++ Flux (mean EC50); for activation of rat mGluR5 receptors without co-addition of glutamate or mGluR5 agonist: HEK-rat mGluR5 cell line
# T1 construct: expressed in transfected cells
# T1 sequence (P31424 21-1171 isoform P31424-2 limits assumed): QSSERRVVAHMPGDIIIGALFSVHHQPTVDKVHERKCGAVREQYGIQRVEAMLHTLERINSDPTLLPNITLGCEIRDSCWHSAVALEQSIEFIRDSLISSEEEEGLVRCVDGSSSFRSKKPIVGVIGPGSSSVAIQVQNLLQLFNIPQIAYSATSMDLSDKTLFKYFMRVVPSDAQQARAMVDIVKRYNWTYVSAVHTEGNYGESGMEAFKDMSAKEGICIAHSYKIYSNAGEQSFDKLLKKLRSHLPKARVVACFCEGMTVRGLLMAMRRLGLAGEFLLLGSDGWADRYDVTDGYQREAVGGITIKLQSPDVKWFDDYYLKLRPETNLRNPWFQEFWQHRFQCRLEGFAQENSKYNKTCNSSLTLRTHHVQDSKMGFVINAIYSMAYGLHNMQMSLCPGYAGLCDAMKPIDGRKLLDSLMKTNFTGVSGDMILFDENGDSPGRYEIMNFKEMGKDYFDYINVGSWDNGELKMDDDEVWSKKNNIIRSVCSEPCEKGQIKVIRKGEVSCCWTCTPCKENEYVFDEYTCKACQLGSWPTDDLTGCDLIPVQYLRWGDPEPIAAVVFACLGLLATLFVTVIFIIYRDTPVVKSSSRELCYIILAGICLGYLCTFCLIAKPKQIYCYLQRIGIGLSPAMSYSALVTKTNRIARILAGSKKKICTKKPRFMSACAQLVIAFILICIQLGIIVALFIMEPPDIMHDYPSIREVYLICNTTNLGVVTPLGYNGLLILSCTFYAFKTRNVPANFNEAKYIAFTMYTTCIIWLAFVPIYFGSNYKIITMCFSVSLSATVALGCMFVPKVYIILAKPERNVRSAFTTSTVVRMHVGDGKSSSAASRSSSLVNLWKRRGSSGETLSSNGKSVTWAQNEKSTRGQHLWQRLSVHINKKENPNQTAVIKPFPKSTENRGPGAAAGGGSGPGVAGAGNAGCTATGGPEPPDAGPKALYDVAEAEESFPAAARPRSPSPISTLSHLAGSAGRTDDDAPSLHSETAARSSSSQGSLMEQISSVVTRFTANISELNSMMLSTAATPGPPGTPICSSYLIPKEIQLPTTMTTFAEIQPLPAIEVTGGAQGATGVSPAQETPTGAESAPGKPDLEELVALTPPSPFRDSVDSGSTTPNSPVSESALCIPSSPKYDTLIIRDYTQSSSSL
# Procedure: Positive functional expression of HEK-293 cells stably expressing rat mGluR5 receptor was determined by measuring intracellular Ca^2+ changes using a Fluorometric Imaging Plate Reader (FLIPR, Molecular Devices, Sunnyvale, Calif.) in response to glutamate or selective known mGluR5 agonists and antagonists. Rat mGluR5RT-PCR products in HEK-293 cells were sequenced and found 100% identical to rat mGluR5Genbank reference sequence (NM_017012). HEK-293 cells expressing rmGluR5 were maintained in media containing DMEM, dialyzed Fetal Bovine Serum (10%), Glutamax™ (2 mM), Penicillin (100 units/ml), Streptomycin (100 μg/ml), Geneticin (100 μg/ml) and Hygromycin-B (40 μg/ml) at 37° C./5% CO2.
# After one day of incubation, cells were washed with assay buffer containing: 142 mM NaCl, 6 mM KCl, 1 mM […], 1 mM CaCl2, 20 mM HEPES, 1 g/L glucose, 0.125 mM sulfinpyrazone, pH 7.4. After 60 min of loading with 4 uM Fluo-4 (TefLabs, Austin, Tex.), the cells were washed three times with 50 μl of PBS Buffer and resuspended in 45 μl of assay Buffer. The plates were then transferred to a Fluorometric Imaging Plate Reader (FLIPR, Molecular Devices, Sunnyvale, Calif.) for the assessment of intracellular calcium flux. After monitoring the baseline fluorescence for 10 seconds, increasing concentrations of representative compound (from 0.01 to 60 μM) of the present invention diluted in Assay Buffer (15 μl of 4× dilutions) was added to the cell. The final DMSO concentration in the assay was 0.3%. In each experiment, fluorescence was then monitored as a function of time for 3 minutes and the data analyzed using Microsoft Excel and GraphPad Prism. Each data point was also measured two times.
# Under these experimental conditions, this HEK-rat mGluR5 cell line is able to directly detect positive allosteric modulators without the need of co-addition of glutamate or mGluR5 agonist.
# The concentration-response curves of representative compounds of the present invention were generated using the Prism GraphPad software (Graph Pad Inc, San Diego, USA). The curves were fitted to a four-parameter logistic equation:
# (Y=Bottom+(Top−Bottom)/(1+10̂((Log EC50−X)*Hill Slope)
# allowing determination of EC50 values.
# The Table 5 below represents the mean EC50 obtained from at least three independent experiments of selected molecules performed in duplicate.
# mGluR5 = molecular target: T2, mGluR5 (Rattus norvegicus, UniProt P31424); conditions: cited from earlier work
# T2 construct: positive allosteric modulators of mGluR5 receptors in native preparations; endogenous in cells; host or cells: primary cortical astrocytes from Sprague-Dawley rat embryos (E16-19)
# T2 sequence (P31424 21-1203): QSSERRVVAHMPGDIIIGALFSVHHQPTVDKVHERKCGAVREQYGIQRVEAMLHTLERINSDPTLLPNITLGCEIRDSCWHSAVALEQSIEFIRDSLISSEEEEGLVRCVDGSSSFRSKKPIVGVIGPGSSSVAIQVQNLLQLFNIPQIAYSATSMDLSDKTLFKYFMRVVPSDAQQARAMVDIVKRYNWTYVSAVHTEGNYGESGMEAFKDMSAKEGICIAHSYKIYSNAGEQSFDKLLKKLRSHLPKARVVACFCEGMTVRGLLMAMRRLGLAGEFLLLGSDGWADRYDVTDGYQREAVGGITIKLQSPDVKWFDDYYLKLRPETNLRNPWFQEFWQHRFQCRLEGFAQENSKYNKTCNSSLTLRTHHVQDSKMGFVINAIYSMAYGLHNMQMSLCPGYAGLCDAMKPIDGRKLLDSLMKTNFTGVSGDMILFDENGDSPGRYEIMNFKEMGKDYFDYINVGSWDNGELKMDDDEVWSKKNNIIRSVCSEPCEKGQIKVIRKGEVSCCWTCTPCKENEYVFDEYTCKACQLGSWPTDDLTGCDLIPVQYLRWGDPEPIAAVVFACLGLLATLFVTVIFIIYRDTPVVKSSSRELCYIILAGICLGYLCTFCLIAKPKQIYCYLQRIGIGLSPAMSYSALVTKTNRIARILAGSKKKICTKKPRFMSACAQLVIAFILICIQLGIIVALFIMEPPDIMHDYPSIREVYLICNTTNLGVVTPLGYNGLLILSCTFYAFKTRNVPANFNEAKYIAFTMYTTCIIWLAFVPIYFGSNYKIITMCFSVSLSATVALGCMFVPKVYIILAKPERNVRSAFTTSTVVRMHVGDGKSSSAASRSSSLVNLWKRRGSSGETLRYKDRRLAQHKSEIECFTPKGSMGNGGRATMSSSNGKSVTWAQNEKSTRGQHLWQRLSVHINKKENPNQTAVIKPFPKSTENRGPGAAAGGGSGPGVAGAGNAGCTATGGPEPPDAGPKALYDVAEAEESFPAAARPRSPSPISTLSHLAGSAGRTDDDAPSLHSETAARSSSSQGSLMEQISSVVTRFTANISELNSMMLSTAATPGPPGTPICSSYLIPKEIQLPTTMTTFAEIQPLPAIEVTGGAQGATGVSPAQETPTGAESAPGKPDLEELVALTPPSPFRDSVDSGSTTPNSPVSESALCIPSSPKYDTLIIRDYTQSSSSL
SMILES,EC50 (rat mGluR5),also measured
"O=C(c1ccc(F)nc1)N1CCC[C@H](c2nc(Oc3ccccc3F)no2)C1 [Example 18, {(S)-3-[3-(2-Fluoro-phenoxy)-[1,2,4]oxadiazol-5-yl]-piperidin-1-yl}-(6-fluoro-pyridin-3-yl)-methanone]",1000 to 10000 nM,
"C[C@H](c1ccccc1)c1nc([C@H]2CCCN(C(=O)c3ccc(F)cc3)C2)no1 [Example 6, (4-Fluoro-phenyl)-{(S)-3-[5-((R)-1-phenyl-ethyl)-[1,2,4]oxadiazol-3-yl]-piperidin-1-yl}-methanone]",> 10000 nM,
"O=C(c1ccc(F)cc1)N1CCC[C@H](c2noc(Cc3ccccc3)n2)C1 [Example 7, [(S)-3-(5-Benzyl-[1,2,4]oxadiazol-3-yl)-piperidin-1-yl]-(4-fluoro-phenyl)-methanone]",< 1000 nM,melting point: 75 °C
"O=C(c1ccc(F)nc1)N1CCC[C@H](c2nc(Oc3ccccc3)no2)C1 [Example 17, (6-Fluoro-pyridin-3-yl)-[(S)-3-(3-phenoxy-[1,2,4]oxadiazol-5-yl)-piperidin-1-yl]-methanone]",< 1000 nM,
"N#Cc1cccc(C(=O)Nc2cc(-c3ccccc3)nn2-c2ccccc2)c1 [CDPPB, reference compound]",,activation of rat mGluR5 receptors without co-addition of glutamate or mGluR5 agonist (rat mGluR5): activating; activity in rat cortical astrocytes culture in the absence of added glutamate (mGluR5): inactive
"O=C(c1ccc(F)cc1)N1CCC[C@H](c2noc(NCc3ccc(F)cc3)n2)C1 [Example 13, {(S)-3-[5-(4-Fluoro-benzylamino)-[1,2,4]oxadiazol-3-yl]-piperidin-1-yl}-(4-fluoro-phenyl)-methanone]",1000 to 10000 nM,
"O=C(c1ccc(F)cc1)N1CCC[C@H](c2noc([C@@H](O)c3ccccc3)n2)C1 [Example 8, (4-Fluoro-phenyl)-{(S)-3-[5-((S)-hydroxy-phenyl-methyl)-[1,2,4]oxadiazol-3-yl]-piperidin-1-yl}-methanone]",> 10000 nM,melting point: 168 to 172 °C
"O=C(c1ccc(F)c(F)c1)N1CCC[C@H](c2noc(Cc3ccc(F)cc3)n2)C1 [Example 3, (3,4-Difluoro-phenyl)-{(S)-3-[5-(4-fluoro-benzyl)-[1,2,4]oxadiazol-3-yl]-piperidin-1-yl}-methanone]",< 1000 nM,
"O=C(c1ccc(F)cc1)N1CCC[C@H](c2nc(Sc3ccccc3)no2)C1 [Example 20, (4-Fluoro-phenyl)-[(S)-3-(3-phenylsulfanyl-[1,2,4]oxadiazol-5-yl)-piperidin-1-yl]-methanone]",> 10000 nM,
"O=C(c1ccc(F)cc1)N1CCC[C@H](c2noc([C@H](O)c3ccccc3)n2)C1 [Example 9, (4-Fluoro-phenyl)-{(S)-3-[5-((R)-hydroxy-phenyl-methyl)-[1,2,4]oxadiazol-3-yl]-piperidin-1-yl}-methanone]",1000 to 10000 nM,
"O=C(c1ccc(F)nc1)N1CCC[C@H](c2nc(Oc3cccc(F)c3)no2)C1 [Example 19, {(S)-3-[3-(3-Fluoro-phenoxy)-[1,2,4]oxadiazol-5-yl]-piperidin-1-yl}-(6-fluoro-pyridin-3-yl)-methanone]",< 1000 nM,
"O=C(Nc1ccc(Cl)cc1CN1C(=O)c2ccccc2C1=O)c1ccccc1O [CPPHA, reference compound]",,activation of rat mGluR5 receptors without co-addition of glutamate or mGluR5 agonist (rat mGluR5): activating; activity in rat cortical astrocytes culture in the absence of added glutamate (mGluR5): inactive
"O=C(c1ccc(F)cc1)N1CCCC(c2nc(Oc3ccccc3)no2)C1 (centres unmarked) [Example 16, (4-Fluoro-phenyl)-[3-(3-phenoxy-[1,2,4]oxadiazol-5-yl)-piperidin-1-yl]-methanone]",< 1000 nM,melting point: 96 to 100 °C
"O=C(c1ccncc1F)N1CCC[C@H](c2nc(Oc3ccccc3)no2)C1 [Example 22, (3-Fluoro-pyridin-4-yl)-[(S)-3-(3-phenoxy-[1,2,4]oxadiazol-5-yl)-piperidin-1-yl]-methanone]",1000 to 10000 nM,
"O=C(c1ccc(F)cc1)N1CCC[C@H](c2noc(Nc3ccccc3)n2)C1 [Example 12, (4-Fluoro-phenyl)-[(S)-3-(5-phenylamino-[1,2,4]oxadiazol-3-yl)-piperidin-1-yl]-methanone]",1000 to 10000 nM,
"O=C(c1ccc(F)cc1)N1CCC[C@H](c2noc(Cc3ccc(F)cc3)n2)C1 [Example 4, {(S)-3-[5-(4-Fluoro-benzyl)-[1,2,4]oxadiazol-3-yl]-piperidin-1-yl}-(4-fluoro-phenyl)-methanone]",< 1000 nM,
"O=C(c1ccc(F)c(F)c1)N1CCC[C@H](c2nc(Cc3ccc(F)cc3)no2)C1 [Example 2, (3,4-Difluoro-phenyl)-{(S)-3-[3-(4-fluoro-benzyl)-[1,2,4]oxadiazol-5-yl]-piperidin-1-yl}-methanone]",< 1000 nM,
"O=C(c1ccc(F)cc1)N1CCCC(c2nc(Oc3ccc(F)cc3)no2)C1 (centres unmarked) [Example 15, {3-[3-(4-Fluoro-phenoxy)-[1,2,4]oxadiazol-5-yl]-piperidin-1-yl}-(4-fluoro-phenyl)-methanone]",1000 to 10000 nM,
"C[C@@H](c1ccccc1)c1nc([C@H]2CCCN(C(=O)c3ccc(F)cc3)C2)no1 [Example 5, (4-Fluoro-phenyl)-{(S)-3-[5-((S)-1-phenyl-ethyl)-[1,2,4]oxadiazol-3-yl]-piperidin-1-yl}-methanone]",1000 to 10000 nM,
"Fc1cccc(/C=N/N=C/c2cccc(F)c2)c1 [DFB, reference compound]",,activation of rat mGluR5 receptors without co-addition of glutamate or mGluR5 agonist (rat mGluR5): activating; activity in rat cortical astrocytes culture in the absence of added glutamate (mGluR5): inactive
"O=C(c1ccc(F)cc1)N1CCCC(c2nc(Oc3cccc(F)c3)no2)C1 (centres unmarked) [Example 21, {3-[3-(3-Fluoro-phenoxy)-[1,2,4]oxadiazol-5-yl]-piperidin-1-yl}-(4-fluoro-phenyl)-methanone]",< 1000 nM,melting point: 99 to 102 °C
"O=C(c1ccccc1)c1nc([C@H]2CCCN(C(=O)c3ccc(F)cc3)C2)no1 [Example 11, {3-[(S)-1-(4-Fluoro-benzoyl)-piperidin-3-yl]-[1,2,4]oxadiazol-5-yl}-phenyl-methanone]",1000 to 10000 nM,melting point: 80 to 83 °C
"O=C(c1ccc(F)cc1)N1CCC[C@H](c2noc(CCc3ccccc3)n2)C1 [Example 10, (4-Fluoro-phenyl)-[(S)-3-(5-phenethyl-[1,2,4]oxadiazol-3-yl)-piperidin-1-yl]-methanone]",1000 to 10000 nM,
"O=C(c1ccc(F)cc1)N1CCC[C@H](n2nnc(Cc3ccccc3)n2)C1 [Example 14, [(S)-3-(5-Benzyl-tetrazol-2-yl)-piperidin-1-yl]-(4-fluoro-phenyl)-methanone]",< 1000 nM,
